Results: US20230000870A1, “METHODS OF TREATING CANCER IN BIOMARKER-IDENTIFIED PATIENTS WITH INHIBITORS OF CYCLIN-DEPENDENT KINASE 7 (CDK7)” (Syros Pharmaceuticals, Inc., priority 2019, published 2023)

Experiments:
A673 cells = assay: Inhibition of proliferation of A673 cells (CyQUANT, 72 hour); assay type: cell-based, human; settings: read-out: Inhibition of Proliferation of A673 Cells (calculated IC50)
Protocol: A673 Cells: A673 cells are a cell line derived from human muscle Ewing's sarcoma. Representative compounds of the invention were tested at different concentrations (from 4 μM to […]; 0.5 log serial dilutions) for their ability to inhibit the proliferation of A673 cells. Known CDK inhibitors dinaciclib or N-((1S,3R)-3-((5-chloro-4-(1H-indol-3-yl)pyrimidin-2-yl)amino)cyclohexyl)-5-((E)-4-(dimethylamino)but-2-enamido)picolinamide and triptolide were used as positive controls. Cells were grown in Dulbecco's Modified Eagle's Medium, +10% FBS+1 mM Sodium Pyruvate. The cells were cultured at 37° C. in a humidified chamber in the presence of 5% CO2. Proliferation assays were conducted over a 72 hour time period. CyQUANT® (Life Technologies, Chicago, Ill. USA) was used to assess the anti-proliferative effects of the compounds following manufacturer's directions and utilizing the reagents supplied with the CyQUANT® kit.

CDK2/Cyclin E1 complex = CDK2/Cyclin E1 complex (Homo sapiens, UniProt P24941); assay: CDK2 kinase inhibition assay (Caliper/LabChip EZ Reader); assay type: biochemical; settings: CDK2/Cyclin E1 0.5 nM, ATP 2 mM, 35 min at 27° C.
Protocol: (§1) Compounds of the invention were assayed for inhibition of CDK7, CDK9, CDK12, and CDK2 activity at Biortus Biosciences (Jiangyin, Jiangsu Province, P.R. of China) using kinase assays for each CDK developed with a Caliper/LabChip EZ Reader (Perkin Elmer, Waltham, Mass.).
(§2) Furthermore, the CDK9 inhibition assay used CDK9/Cyclin T1 complex (8 nM) and “5-FAM-CDK9tide” peptide substrate (2 μM, synthesized fluorophore-labeled peptide with the following sequence: 5-FAM-GSRTPMY-NH2 where 5-FAM is defined above and NH2 signifies a C-terminal amide) with 10 mM MgCl2 in the buffer composition listed above. The CDK12 inhibition assay used CDK12 (aa686-1082)/Cyclin K complex (50 nM) and “5-FAM-CDK9tide” (2 μM) as defined above, with 2 mM MgCl2 in the buffer composition above. Additionally, the CDK2 inhibition assay used CDK2/Cyclin E1 complex (0.5 nM) and “5-FAM-CDK7tide” (2 μM) as defined above, with 2 mM MgCl2 in the buffer composition listed above.
(§3) The incubation period at 27° C. for each CDK inhibition assay was chosen such that the fraction of phosphorylated peptide product produced in each assay, relative to the total peptide concentration, was approximately 20% (±5%) for the uninhibited kinase (35 min. for CDK7, 35 min. for CDK2, 3 hr. for CDK12, 15 min. for CDK9).

CDK9/Cyclin T1 complex = CDK9/Cyclin T1 complex (Homo sapiens, UniProt P50750); assay: CDK9 kinase inhibition assay (Caliper/LabChip EZ Reader); assay type: biochemical; settings: CDK9/Cyclin T1 8 nM, ATP 2 mM, 15 min at 27° C.
Sequence of CDK9/Cyclin T1 complex (P50750 whole entry): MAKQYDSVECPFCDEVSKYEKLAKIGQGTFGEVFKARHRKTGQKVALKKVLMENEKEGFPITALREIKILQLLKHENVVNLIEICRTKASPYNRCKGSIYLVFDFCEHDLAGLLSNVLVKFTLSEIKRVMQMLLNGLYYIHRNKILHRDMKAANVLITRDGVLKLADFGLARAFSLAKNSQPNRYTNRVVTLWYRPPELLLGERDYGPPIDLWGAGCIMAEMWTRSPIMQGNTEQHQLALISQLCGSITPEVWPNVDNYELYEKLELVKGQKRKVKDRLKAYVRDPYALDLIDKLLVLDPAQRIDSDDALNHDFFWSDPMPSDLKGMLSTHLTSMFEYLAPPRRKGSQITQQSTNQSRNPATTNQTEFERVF
Sequence of CDK9/Cyclin T1 complex (O60563 whole entry partner): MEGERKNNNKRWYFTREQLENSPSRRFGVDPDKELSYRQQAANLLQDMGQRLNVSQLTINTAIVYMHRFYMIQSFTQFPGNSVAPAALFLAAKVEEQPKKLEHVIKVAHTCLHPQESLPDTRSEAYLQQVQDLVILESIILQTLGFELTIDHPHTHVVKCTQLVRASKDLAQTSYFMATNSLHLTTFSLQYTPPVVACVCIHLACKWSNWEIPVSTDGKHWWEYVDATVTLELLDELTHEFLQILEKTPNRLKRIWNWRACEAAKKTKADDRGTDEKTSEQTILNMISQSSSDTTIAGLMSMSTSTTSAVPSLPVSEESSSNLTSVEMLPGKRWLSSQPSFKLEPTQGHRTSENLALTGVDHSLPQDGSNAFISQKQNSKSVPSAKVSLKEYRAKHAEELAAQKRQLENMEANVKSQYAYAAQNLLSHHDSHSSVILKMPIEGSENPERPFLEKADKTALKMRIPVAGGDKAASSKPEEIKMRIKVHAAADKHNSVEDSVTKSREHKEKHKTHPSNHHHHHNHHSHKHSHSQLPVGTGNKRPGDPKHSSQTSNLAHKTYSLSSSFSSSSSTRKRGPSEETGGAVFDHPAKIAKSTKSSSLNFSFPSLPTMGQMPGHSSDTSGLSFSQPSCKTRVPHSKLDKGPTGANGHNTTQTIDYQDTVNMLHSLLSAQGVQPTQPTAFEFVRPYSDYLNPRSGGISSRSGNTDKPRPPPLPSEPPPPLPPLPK
Protocol: as §1, §2, §3

[1] = molecular target: CDK7/Cyclin H/MAT1 complex (Homo sapiens, UniProt P50613); assay: CDK7 kinase inhibition assay (Caliper/LabChip EZ Reader); assay type: biochemical; settings: CDK7/Cyclin H/MAT1 6 nM, ATP 2 mM, 35 min at 27° C.
Sequence of CDK7/Cyclin H/MAT1 complex (P50613 whole entry): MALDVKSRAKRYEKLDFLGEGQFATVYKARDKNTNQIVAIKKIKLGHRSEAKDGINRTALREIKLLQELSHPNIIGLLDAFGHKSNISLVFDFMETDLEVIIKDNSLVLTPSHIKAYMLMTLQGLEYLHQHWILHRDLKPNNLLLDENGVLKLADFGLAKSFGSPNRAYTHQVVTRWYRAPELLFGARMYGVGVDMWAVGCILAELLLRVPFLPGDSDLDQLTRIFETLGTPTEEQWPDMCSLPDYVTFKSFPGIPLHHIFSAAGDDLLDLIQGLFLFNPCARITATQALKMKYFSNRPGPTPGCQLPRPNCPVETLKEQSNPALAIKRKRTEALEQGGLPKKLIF
Sequence of CDK7/Cyclin H/MAT1 complex (P51946 whole entry partner): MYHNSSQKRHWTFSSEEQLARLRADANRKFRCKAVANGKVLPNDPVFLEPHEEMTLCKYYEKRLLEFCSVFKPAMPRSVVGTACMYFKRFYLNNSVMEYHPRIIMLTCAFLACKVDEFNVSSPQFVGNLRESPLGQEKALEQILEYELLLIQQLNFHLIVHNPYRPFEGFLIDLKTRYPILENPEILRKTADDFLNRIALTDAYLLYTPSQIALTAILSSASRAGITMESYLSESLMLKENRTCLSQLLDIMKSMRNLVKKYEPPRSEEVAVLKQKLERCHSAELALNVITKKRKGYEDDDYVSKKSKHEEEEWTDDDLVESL
Sequence of CDK7/Cyclin H/MAT1 complex (P51948 whole entry partner): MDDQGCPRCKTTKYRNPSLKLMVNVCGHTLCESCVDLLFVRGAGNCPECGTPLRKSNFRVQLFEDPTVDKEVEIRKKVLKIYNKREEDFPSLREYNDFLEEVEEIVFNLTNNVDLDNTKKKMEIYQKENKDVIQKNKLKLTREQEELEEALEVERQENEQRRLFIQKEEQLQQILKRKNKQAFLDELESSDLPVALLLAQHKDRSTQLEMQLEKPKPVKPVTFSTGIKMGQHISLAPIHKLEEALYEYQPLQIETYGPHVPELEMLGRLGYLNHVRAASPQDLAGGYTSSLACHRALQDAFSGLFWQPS
Protocol: as §1, §2, §3

[2] = molecular target: T1, CDK12 (aa686-1082)/Cyclin K complex (Homo sapiens, UniProt Q9NYV4); assay: CDK12 kinase inhibition assay (Caliper/LabChip EZ Reader); assay type: biochemical; settings: CDK12 (aa686-1082)/Cyclin K 50 nM, ATP 2 mM, 3 hr at 27° C.
T1 construct: CDK12 (aa686-1082)/Cyclin K complex
T1 sequence (Q9NYV4 686-1082): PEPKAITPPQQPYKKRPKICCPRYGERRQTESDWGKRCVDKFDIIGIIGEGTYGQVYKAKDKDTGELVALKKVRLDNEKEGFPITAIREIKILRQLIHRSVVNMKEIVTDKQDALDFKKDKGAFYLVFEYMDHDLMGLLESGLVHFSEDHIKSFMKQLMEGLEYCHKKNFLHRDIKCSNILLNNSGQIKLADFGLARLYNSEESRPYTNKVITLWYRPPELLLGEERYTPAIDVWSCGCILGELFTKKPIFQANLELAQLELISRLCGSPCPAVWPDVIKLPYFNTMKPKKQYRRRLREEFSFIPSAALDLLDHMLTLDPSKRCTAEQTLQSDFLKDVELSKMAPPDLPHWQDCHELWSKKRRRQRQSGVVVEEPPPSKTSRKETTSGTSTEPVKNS
T1 sequence (O75909 whole entry partner, the tested form may be a part): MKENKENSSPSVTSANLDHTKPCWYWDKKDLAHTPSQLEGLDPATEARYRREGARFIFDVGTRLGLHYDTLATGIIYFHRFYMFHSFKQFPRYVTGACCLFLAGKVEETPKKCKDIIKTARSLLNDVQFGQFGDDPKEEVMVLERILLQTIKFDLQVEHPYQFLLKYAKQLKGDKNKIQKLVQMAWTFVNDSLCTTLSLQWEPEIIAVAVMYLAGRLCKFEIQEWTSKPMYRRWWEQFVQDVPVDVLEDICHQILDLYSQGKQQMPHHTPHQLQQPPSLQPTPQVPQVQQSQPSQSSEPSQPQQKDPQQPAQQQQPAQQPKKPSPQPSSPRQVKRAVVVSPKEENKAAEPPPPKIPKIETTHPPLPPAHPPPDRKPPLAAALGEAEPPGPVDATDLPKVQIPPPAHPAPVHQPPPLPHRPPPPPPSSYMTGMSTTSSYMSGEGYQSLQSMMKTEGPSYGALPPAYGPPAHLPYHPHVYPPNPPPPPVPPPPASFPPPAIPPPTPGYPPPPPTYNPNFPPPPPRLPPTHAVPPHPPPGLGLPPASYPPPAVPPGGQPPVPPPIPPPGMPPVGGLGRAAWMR
Protocol: as §1, §2, §3

| SMILES | IC50 (A673 cells) | IC50 (CDK2/Cyclin E1 complex) | IC50 (CDK9/Cyclin T1 complex) | IC50 [1] | IC50 [2] |
| --- | --- | --- | --- | --- | --- |
| CCOP(C)(=O)c1cccc2c(-c3nc(NC4CCCNC4)ncc3C(F)(F)F)c[nH]c12 (stereo not shown) [Compound 179] | < 20 nM | 200 to 5000 nM | 200 to 5000 nM | < 20 nM | 200 to 5000 nM |
| Cn1cc(-c2ccc3c(-c4nc(NC5CCCNC5)ncc4C(F)(F)F)c[nH]c3c2)cn1 (stereo not shown) [Compound 181] | < 20 nM | 200 to 5000 nM | 200 to 5000 nM | < 20 nM | 200 to 5000 nM |
| CC1CNCC(Nc2ncc(Cl)c(-c3c[nH]c4ccccc34)n2)C1 (stereo not shown) [Compound 182] | 20 to 200 nM | ≥ 5000 nM | 200 to 5000 nM | 20 to 200 nM | 200 to 5000 nM |
| CCOP(=O)(OCC)c1ccc2[nH]cc(-c3nc(NC4CCCNC4)ncc3C(F)(F)F)c2c1 (stereo not shown) [Compound 183] | 200 to 5000 nM | 200 to 5000 nM | 200 to 5000 nM | 20 to 200 nM | ≥ 5000 nM |
| Fc1cc2[nH]cc(-c3nc(NC4CCCNC4)ncc3C(F)(F)F)c2cc1F (stereo not shown) [Compound 184] | < 20 nM | 20 to 200 nM | 20 to 200 nM | < 20 nM | 20 to 200 nM |
| CNC(=O)c1ccc2c(-c3nc(NC4CCCNC4)ncc3C(F)(F)F)c[nH]c2c1 (stereo not shown) [Compound 186] | 20 to 200 nM | 200 to 5000 nM | 200 to 5000 nM | < 20 nM | 200 to 5000 nM |
| CCOP(=O)(OCC)c1ccc2c(-c3nc(NC4CCCNC4)ncc3C(F)(F)F)c[nH]c2c1 (stereo not shown) [Compound 187] | 20 to 200 nM | ≥ 5000 nM | ≥ 5000 nM | 20 to 200 nM | 200 to 5000 nM |
| FC(F)(F)c1cnc(NC2CCCNC2)nc1-c1c[nH]c2cc(-c3cn[nH]c3)ccc12 (stereo not shown) [Compound 188] | 20 to 200 nM | 200 to 5000 nM | 200 to 5000 nM | < 20 nM | 200 to 5000 nM |
| COc1cnc(N[C@H]2CCCNC2)nc1-c1c[nH]c2ccccc12 [Compound 189] | 200 to 5000 nM | ≥ 5000 nM | ≥ 5000 nM | 200 to 5000 nM | ≥ 5000 nM |
| CC(C)(O)CCc1cccc2c(-c3nc(NC4CCCNC4)ncc3C(F)(F)F)c[nH]c12 (stereo not shown) [Compound 191] | < 20 nM | 200 to 5000 nM | 200 to 5000 nM | < 20 nM | 200 to 5000 nM |
| C#Cc1cnc(NC2CCCNC2)nc1-c1c[nH]c2ccccc12 (stereo not shown) [Compound 194] | < 20 nM | 200 to 5000 nM | 200 to 5000 nM | < 20 nM | 200 to 5000 nM |
| C#Cc1cnc(N[C@H]2CCCNC2)nc1-c1cn(C)c2ccccc12 [Compound 195] | 20 to 200 nM | ≥ 5000 nM | ≥ 5000 nM | 200 to 5000 nM | ≥ 5000 nM |
| O=S1(=O)CCN(c2cccc3c(-c4nc(NC5CCCNC5)ncc4Cl)c[nH]c23)CC1 (stereo not shown) [Compound 196] | 20 to 200 nM | 200 to 5000 nM | 200 to 5000 nM | < 20 nM | 200 to 5000 nM |
| N#Cc1cc2[nH]cc(-c3nc(NC4CCCNC4)ncc3C(F)(F)F)c2cc1F (stereo not shown) [Compound 197] | < 20 nM | 200 to 5000 nM | 200 to 5000 nM | < 20 nM | 200 to 5000 nM |
| OC1CC=C(c2cccc3c(-c4nc(NC5CCCNC5)ncc4C(F)(F)F)c[nH]c23)CC1 (stereo not shown) [Compound 198] | < 20 nM | 200 to 5000 nM | 200 to 5000 nM | < 20 nM | 200 to 5000 nM |
| CNS(=O)(=O)c1ccc2c(-c3nc(N[C@H]4CCCNC4)ncc3C(F)(F)F)c[nH]c2c1 [Compound 200] | 20 to 200 nM | 200 to 5000 nM | 200 to 5000 nM | < 20 nM | 200 to 5000 nM |
| CC1CNCC(Nc2ncc(Cl)c(-c3c[nH]c4ccccc34)n2)C1 (stereo not shown) [Compound 201] | < 20 nM | 200 to 5000 nM | 200 to 5000 nM | < 20 nM | 20 to 200 nM |
